Laboratory results from article PMC3230782 (Peptides, 2011).

Experiments:
[1] = tested on: estrogen-stimulated growth of the immature mouse uterus; experiment: immature mouse uterine growth inhibition assay; assay type: in vivo, mouse (Swiss Webster female); conditions: for effect on the growth inhibition activity of AFPep when combined: combination with AFPep (Figure 2A, 2C); for dose-response behaviour of inhibition of estrogen-stimulated uterine growth: peptide alone, range of doses i.p. (Figure 1)
[2] = tested on: estrogen-stimulated growth of the immature mouse uterus; conditions: 30 (EMTPVNPG), 29 (AFPep); cited from earlier work
[3] = earlier work; 30 (EMTPVNPG); 29 (AFPep); cited from earlier work

Substance | effect on the growth inhibition activity of AFPep when combined [1] | dose-response behaviour of inhibition of estrogen-stimulated uterine growth [1] | dose-response behaviour in anti-estrotrophic assay (earlier work) [2] | shelf life [3]
cyclo[EKTOVGOGN] FS (lariat or depsi) | enhanced the activity of AFPep | no activity at any dose | – | –
cyclo[EKTOVNOGN] FS (lariat or depsi) | decreased the activity of AFPep | little activity at any dose | – | –
EMTPVNPG | – | – | biphasic dose-response curve | very short shelf life
